Test results taken from US20250250227A1, “AMINO LIPID COMPOUND, PREPARATION METHOD THEREFOR, COMPOSITION THEREOF AND USE THEREOF” (SHENZHEN SHENXIN BIOTECHNOLOGY CO., LTD., priority 2022, published 2025).

Experiments:
Female BALB/c mice [1] = test: Performance evaluation of delivery to lymph nodes of Fluc mRNA lipid nanoparticle (IVIS); format: in vivo; conditions: Fluc mRNA LNP
Description: (§1) Animal preparation: Female BALB/c mice of 6-8 weeks old were selected and raised in an SPF grade breeding room. Animal testing was conducted in strict accordance with the guidelines of national health institutions and animal ethics requirements.
In vivo Delivery: prior to injection of the test LNP formulations, the LNP formulations were gently and repeatedly inverted to thoroughly mix the formulation samples. A corresponding amount of the formulation samples were aspirated with a 1 ml insulin syringe, and the LNP formulations were injected by tail vein injection (IV), with 3 mice per formulation. Each mouse was injected with 75 μL the luciferase mRNA (Fluc mRNA)-encapsulating lipid nanoparticle formulation prepared in Experimental Example 1.
6 hours after injection of LNP formulations, mice were injected with 200 μL D-Luciferin luciferase developing substrate (Catalog No. 122799; Manufacturer: Perkin Elmer). After the substrate was injected, the mice were anesthetized with isoflurane inhalation, and the injection time of luciferase developing substrate was recorded.
The intensity of fluorescence expression induced by the lipid nanoparticle encapsulating luciferase mRNA (Fluc mRNA) with a representative amino lipid compound is shown in Table 6, with SM-102 as a control.

Female BALB/c mice [2] = test: In vivo safety of hEPO mRNA lipid nanoparticle: serum alanine aminotransferase (ALT) enzyme activity; conditions: hEPO mRNA LNP, 300 μL IV, serum 12 h after injection; FIG. 1
Description: A human erythropoietin mRNA (hEPO mRNA)-encapsulating lipid nanoparticle formulation was prepared according to the method as described in Experimental Example 1, with replacing the luciferase mRNA (Fluc mRNA) with human erythropoietin mRNA (hEPO mRNA), with a concentration of hEPO mRNA of 0.2 g/L, a mass ratio of hEPO mRNA to Lipid of 1:10, a particle size of 90-130 nm, and an encapsulation efficiency of above 90% or higher.
as §1
In vivo Delivery: Prior to injection of the test LNP formulations, the LNP formulations were gently and repeatedly inverted to thoroughly mix the formulation samples. A corresponding amount of the formulation samples were aspirated with a 1 ml insulin syringe, and the LNP formulations were injected by tail vein injection (IV), with 5 mice per formulation. Each mouse was injected with 300 μL of the human erythropoietin mRNA (hEPO mRNA)-encapsulating lipid nanoparticle formulation.
Serum acquisition: Blood samples of mice were collected 12 h after injection, placed in tubes without anticoagulants, and naturally coagulated at room temperature for 30-60 min, and then centrifuged at a speed of 3500 rpm for 10 min to obtain the supernatant, which was the serum.
The detection of alanine transaminase was carried out according to instructions of the kit (Nanjing Jiancheng Bioengineering Institute, Catalog. No. C009-2-1), and a standard curve was made using the standard provided in the kit. D-PBS was used in the experiment, which was purchased from Sangon Biotech (Shanghai) Co., Ltd., Catalog No. E607009-0600.
The method of detection of enzyme activity of alanine aminotransferase (ALT) in serum of the mice is as follows:
• (1) Enzymatic reaction: 0, 2, 4, 6, 8 and 10 μL of […] sodium pyruvate standard solution were sequentially added to 5 μL of 0.1 mol/L phosphate buffer, and the volume was supplemented to 25 μL with a matrix solution, and repeatedly aspirating and spitting with a pipette for mixing well; • (2) Addition reaction: 20 μL 2,4-dinitrophenylhydrazine solution was added to all reaction wells in (1), mixed by aspirating and spitting, and then placed in an incubator at 37° C. to react for 20 min; • (3) Developing: 200 μL of 0.4 mol/L NaOH solution was added to all reaction wells in (2) to stop the reaction, mixed by aspirating and spitting, and incubated at room temperature for 15 min. The OD value of each well was measured at 510 nm in a microplate reader; and • (4) Data processing of standard curve: The corresponding absolute OD value for each well was obtained by subtracting the OD value for 0 μL well from the measured OD value for each well, the corresponding ALT Karmen units being 0, 28, 57, 97, 150 and 200 U/L, respectively. The standard curve was obtain by taking the absolute OD value as the abscissa and the corresponding Karmen unit as the ordinate.
• (1) Reagent preparation: an ALT matrix solution was placed in an incubator at 37° C. for preheating; • (2) Enzymatic reaction: 5 μL diluted serum was aspirated and added to a 96-well plate, then 20 μL matrix solution was added to the corresponding sample well and mixed by repeatedly aspirating and spitting to avoid bubbling, and then placed in an incubator at 37° C. for 30 min; • (3) Addition reaction: 20 μL 2,4-dinitrophenylhydrazine was added to all reaction wells in (2), mixed by aspirating and spitting, and then reacted in an incubator at 37° C. for 20 min; • (4) Developing: 200 μL of 0.4 mol/L NaOH solution was added to all reaction wells in (3) to stop the reaction, mixed by aspirating and spitting, and then incubated at room temperature for 15 min. […]

Female BALB/c mice [3] = test: IFN-γ Elispot cellular immunity test, spleen lymphocytes of mice immunized with IN002.5.1 mRNA LNP; format: in vivo; conditions: 50 μL IM, spleen on 7th day after immunization, FIG. 2-4
Description: An IN002.5.1 mRNA-encapsulating lipid nanoparticle formulation was prepared according to the method as described in Experimental Example 1, with replacing the luciferase mRNA (Fluc mRNA) with IN002.5.1 mRNA, with a concentration of IN002.5.1 mRNA of 0.2 g/L, a mass ratio of IN002.5.1 mRNA to Lipid of 1:10, a particle size of 80-130 nm, and an encapsulation efficiency of 90% or higher.
The sequence of IN002.5.1 mRNA is one obtained by replacing all uracil (u) in SEQ ID NO. 1 with N1-methylpseudouridine. Of note is that the t (thymine) in the RNA sequence, SEQ ID NO. 1, in the Sequence Listing is actually u (uracil), according to the WIPO Standard ST. 26 for nucleotide or amino acid sequence listing.
as §1
Immunization of mice: Prior to injection of the test LNP formulations, the LNP formulations were gently and repeatedly inverted to thoroughly mix the formulation samples. A corresponding amount of the formulation samples were aspirated with a 1 ml insulin syringe, and the LNP formulations were injected by intramuscular injection (IM) […], with 8 mice per formulation. Each mouse was injected with 50 μL of the IN002.5.1 mRNA encapsulating lipid nanoparticle formulation.
Spleen acquisition: On the 7th day after immunization, 3 to 4 mice from each LNP immunization group were selected and euthanized, and their spleens were acquired in a super clean bench.
Isolation of lymphocytes: The spleens of mice were taken out in a super clean bench. 7 mL of mouse lymphocyte separation solution was added to a 6-well cell culture plate. Mouse spleen cells were ground with a syringe piston, and the suspension of the spleen cells was filtered through a cell screen and immediately transferred to a 15 mL centrifuge tube. […] RPMI 1640 medium was slowly added with keeping the liquid interface distinct. After centrifugation at 800 g with a horizontal rotor at room temperature for 30 minutes, a clear stratification can be visible. The lymphocyte layer was aspirated, then added with 10 mL RPMI 1640 medium, and inverted for washing. The cells were collected by centrifugation at 250 g for 10 min at room temperature, and the red blood cells were lysed. After completing lysis of red blood cells, the supernatant was poured, and the cells were resuspended in culture medium and counted.
Addition of stimulant and culture of lymphocyte: RPMI-1640 medium containing 10% fetal bovine serum was used to activate the pre-coated plate. After standing at room temperature for at least 30 min, the medium was removed, and a cell suspension at adjusted concentration was added ([…]). The medium used to resuspend the cells was used as a background negative control. 10 μL positive stimulant working solution (PMA+Ionomycin (dissolved in DPBS) was added to a positive control well; […] medium used to resuspend the cells was added to a negative control well; 10 µL/well of a peptide library diluted with RPMI 1640 was added to experimental wells. After all samples and the stimulant were added, the plate was covered, incubated in an incubator with 5% CO2 at 37° C. for 16-24 h.
Elispot detection after culture: The cells and the culture medium in the wells were dumped, and the wells were lysed with 200 μL/well of ice-cold deionized water at 4° C. for 10 min. The liquid in the wells were shaken out, and the wells were washed five times with PBS buffer. The wells were incubated with 100 μL/well of 1 μg/ml detection antibody for 2 h at room temperature; and after washing the plate 5 times with PBS, the wells were incubated with 100 μL/well of 1000-fold diluted enzyme labeled avidin (Streptavidin-HRP) for 1 h at room temperature. […]

Female BALB/c mice [4] = test: Humoral immunity test for total binding IgG antibody (ELISA, SARS-COV-2 antigen protein) in serum of immunized mice; format: in vivo; conditions: IN002.5.1 mRNA LNP, 50 μL IM, serum on 14th day after immunization; FIG. 5-6
[5] = Preparation and characterisation of mRNA-encapsulating lipid nanoparticle (encapsulation efficiency, particle size); format: physicochemical; conditions: LNP encapsulating Fluc mRNA; Lipid:DSPC:CHO-HP:M-DMG-2000 48:10:40.5:1.5
How it was run: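 Fluc mRNA in sodium acetate buffer mixed with ethanolic amino lipid:DSPC:CHO-HP:M-DMG-2000 (48:10:40.5:1.5 molar) by microfluidics, mRNA:lipid mass ratio 1:10, then dialysed 2 h against Tris-8% sucrose and 0.22 μm filtered. Final mRNA 0.2 g/L; particle size and encapsulation efficiency measured.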

Female BALB/c mice [6] = test: Performance evaluation of in vivo delivery of Fluc mRNA lipid nanoparticle (IVIS, body and organs); conditions: Fluc mRNA LNP; for Liver (fluorescence expression intensity) / Spleen (fluorescence expression intensity): 75 μL IV; for Liver (fluorescence expression intensity) / Spleen (fluorescence expression intensity) / Total flux (fluorescence expression intensity) / (Spleen/Total Flux) * 100%: 6 hours after injection; for Liver (fluorescence expression intensity) / Spleen (fluorescence expression intensity) / Total flux (fluorescence expression intensity): IVIS; for Total flux (fluorescence expression intensity): 75 μL tail vein injection (IV); for (Spleen/Total Flux) * 100% / Multiple of spleen delivery/total delivery to amino lipid compound 118: IV; for Multiple of spleen delivery/total delivery to amino lipid compound 118: relative to amino lipid compound 118
How it was run: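 Female BALB/c mice, 6-8 weeks, received 75 μL Fluc mRNA-LNP by tail-vein injection, 3 mice per formulation. At 6 h, 200 μL D-luciferin was injected, mice were anesthetized with isoflurane, and IVIS bioluminescence was imaged in body and organs.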

| Structure (SMILES) | Expression intensity (lymph nodes) (Female BALB/c mice [1]; 75 μL IV, 6 hours after injection, IVIS, lymph nodes) | Delivery effect on lymph nodes compared to SM102 (Female BALB/c mice [1]; IV, statement on Table 6) | ALT enzyme activity (Karmen unit) compared to ALC0315 and SM-102 (Female BALB/c mice [2]) | Cellular immunity effect (IFN-γ Elispot) compared to ALC0315 (Female BALB/c mice [3]) | Humoral immunity effect (IgG titer) compared to ALC0315 (Female BALB/c mice [4]) | Encapsulation efficiency [5] [%] | Liver (fluorescence expression intensity) (Female BALB/c mice [6]) | Spleen (fluorescence expression intensity) (Female BALB/c mice [6]) | Total flux (fluorescence expression intensity) (Female BALB/c mice [6]) | (Spleen/Total Flux) * 100% (Female BALB/c mice [6]) [%] | Multiple of spleen delivery/total delivery to amino lipid compound 118 (Female BALB/c mice [6]) |
| --- | --- | --- | --- | --- | --- | --- | --- | --- | --- | --- | --- |
| CCCCCCC(CCCCCC)OC(=O)CCCCCCCCC(CCCCCCCCC(=O)OC(CCCCCC)CCCCCC)OC(=O)N(CCCCCC(=O)OCC)CCCN(C)C [Compound 250] | 1.77E+06 | better delivery effect on lymph nodes | – | – | – | – | – | – | – | – | – |
| CCCCCCC(CCCCCC)OC(=O)CCCCCCCCC(CCCCCCCCC(=O)OC(CCCCCC)CCCCCC)OC(=O)N(CCCN(C)C)CCC(=O)OCCC [Compound 263] | – | – | significantly lower ALT enzyme activity | better cellular immunity effect | better humoral immunity effect | – | – | – | – | – | – |
| CCCCCCC(CCCCCC)OC(=O)CCCCCCCCC(CCCCCCCCC(=O)OC(CCCCCC)CCCCCC)OC(=O)N(CCCN(C)C)CCC(=O)OCCCCC [Compound 265] | – | – | – | better cellular immunity effect | better humoral immunity effect | 94.59 | 7.57E+07 | 1.91E+06 | 3.93E+08 | 0.49 | 1.43 |
| CCCCCCOC(=O)CCN(CCCN(C)C)C(=O)OC(CCCCCCCCC(=O)OC(CCCCCC)CCCCCC)CCCCCCCCC(=O)OC(CCCCCC)CCCCCC [Compound 266] | – | – | significantly lower ALT enzyme activity | – | better humoral immunity effect | 94.26 | 8.09E+07 | 1.60E+06 | 2.67E+08 | 0.60 | 1.76 |
| CCCCCCC(CCCCCC)OC(=O)CCCCCCCCC(CCCCCCCCC(=O)OC(CCCCCC)CCCCCC)OC(=O)N(CCCN(C)C)CC(=O)OCCCCC [Compound 271] | – | – | – | better cellular immunity effect | better humoral immunity effect | 93.59 | 7.57E+07 | 4.76E+06 | 2.68E+08 | 1.78 | 5.22 |
| CCCCCCCCOC(=O)CN(CCCN(C)C)C(=O)OC(CCCCCCCCC(=O)OC(CCCCCC)CCCCCC)CCCCCCCCC(=O)OC(CCCCCC)CCCCCC [Compound 274] | – | – | – | better cellular immunity effect | better humoral immunity effect | 93.06 | 7.08E+07 | 2.60E+06 | 3.25E+08 | 0.80 | 2.35 |
